According to US9096829B2, “Human mast cell line and uses thereof” (UNIVERSITY OF SOUTH FLORIDA, priority 2009, dated 2015):

Assays:
Format in all cases: cell-based, human
[1] = test system: USF-MC1 cells; test: Beta-hexosaminidase (histamine) release from USF-MC1 mast cells
Experimental: (§1) FIGS. 3A-D show graphs of histamine (beta hexosaminidase) release from USF-MC1 cells compared to LAD2 cells after one hour (FIGS. 3A and 3B, respectively), and after six hours (FIGS. 3D and 3C, respectively). USF-MC1 cells (2×10^6 per well) were coated with biotinylated human myeloma IgE for 18 hours. Cells were then washed and challenged with streptavidin (100 ng/ml), ionomycin (5 μM), ANP (1 μM), ANP+KP2, ANP+Isatin. After 30 minutes, supernatants and cell lysates were developed with […] and optical density (OD) was read at 405 nm. Percent release is expressed as a ratio of supernatant over total (supernatant+lysate). […] In addition, ANP-induced histamine release is attenuated by an NPRA receptor antagonist (isatin).
In order to activate mast cells via the FceR1 receptor, cells were cultured for 18 hours with biotinylated human myeloma IgE (100 ng/ml)(Sigma). Cells were then challenged with streptavidin (100 ng/ml)(Sigma), ionomycin (5 μM), or atrial natriuretic peptide (ANP) (100 ng/ml). After 30 minutes, supernatants and cell pellets were harvested. Substrate solution (p-Nitrophenyl-N-acetyl-B-D-glucosaminide Calbiochem, 0.13% in sodium citric solution) was added to either the cell supernatants or pellets and incubated for 1.5 hr. 0.4M glycine solution was then added to stop the reaction. The optical density (OD) was read at 405 nm. Percent release was expressed as a ratio of supernatant over total (supernatant+lysate). Percent release of beta-hexosadminidase by SV40 LT-transfected USF-MC1 cells and non-transfected USF-MC1 cells is shown in FIG. 5C.
USF-MC1 cells (2×10^6 per well) were coated with biotinylated human myeloma IgE for 18 hours. Cells were then washed and challenged with streptavidin (100 ng/ml), ionomycin (5 μM), ANP (1 μM), ANP+KP2, ANP+Isatin. After 30 minutes, supernatants and cell lysates were developed with […] and optical density (OD) was read at 405 nm. Percent release is expressed as a ratio of supernatant over total (supernatant+lysate). […]

[2] = test system: USF-MC1 cells; test: Leukotriene C4 release (ELISA) from USF-MC1 mast cells; details: ANP challenge plus isatin
Experimental: (§2) TNF-a (R&G Systems), IL-17 (eBioscience), and Leukotrine C4 (Cayman Chemical) protein concentrations in mast cell supernatants were determined using ELISA kits from each respective manufacturer. Each ELISA was performed according to the manufacturer's instructions.

[3] = test system: LAD2 cells; test: Leukotriene C4 release (ELISA) from LAD2 mast cells; details: ANP challenge plus isatin
Experimental: as §2

[4] = test system: LAD2 cells; test: Beta-hexosaminidase (histamine) release from LAD2 mast cells; details: ANP challenge plus isatin
Experimental: as §1
In order to activate mast cells via the FceR1 receptor, cells were cultured for 18 hours with biotinylated human myeloma IgE (100 ng/ml)(Sigma). Cells were then challenged with streptavidin (100 ng/ml)(Sigma), ionomycin (5 μM), or atrial natriuretic peptide (ANP) (100 ng/ml). After 30 minutes, supernatants and cell pellets were harvested. […] The optical density (OD) was read at 405 nm. Percent release was expressed as a ratio of supernatant over total (supernatant+lysate). […]

## C[C@H](CCC(=O)O)C[C@H](C)C[C@H](C)C(=O)/C=C(\O)[C@H](C)C[C@H](C)C/C=C/[C@@H](C)[C@@H](O)[C@@H](C)[C@@H](O)C[C@@H]1CC[C@@](C)([C@H]2CC[C@@](C)([C@@H](C)O)O2)O1 [ionomycin]
[1]; ionomycin 5 μM or ANP 1 μM, 30 minutes
  histamine (beta hexosaminidase) release after challenge: releases histamine within minutes

## O=C1Nc2ccccc2C1=O [isatin]
[1]; ANP 1 μM + isatin, 30 minutes
  effect on ANP-induced histamine release: attenuated
[1]; ANP challenge plus isatin
  effect on ANP-induced release of B-Hex: reduced to baseline
[2]
  effect on ANP-induced release of LTC4: reduced to baseline
[3]
  effect on ANP-induced release of LTC4: reduced to baseline
[4]
  effect on ANP-induced release of B-Hex: reduced to baseline
